Source: patent US20180256538A1, “METHOD FOR IMPROVING MITOPHAGY IN SUBJECTS” (Amazentis SA, priority 2017, published 2018)
Entries after “also recorded” stand apart in the source; their conditions may differ.

Tests used:
[1] = clinical; settings: human, in vivo, po; for AUC(0-t) / Cmax: both sexes
Experimental: Part A: The study was a double-blind, randomized, single ascending doses, study in 24 healthy elderly male and female volunteers. Each subject was randomized for two subsequent doses in three cohorts.
Part A: Single oral dose administration on D1 of each period according to the randomisation. The administration took place around 8:00 am with around 200 mL tap water, in sitting position, and under fasting conditions.
After single dosing: Cmax, tmax, AUC0-t, AUC0-∞, t1/2
(§1) Blood sampling was performed for urolithin A concentration measurements at the exact timepoints with an authorised time window described in the table below:
(§2) At each time point indicated in the table, a 6 mL blood sample was drawn into K2-EDTA coated tube. The blood samples were gently inverted a few times for complete mixing with the anticoagulant. The exact time of sample collection was recorded on the eCRF. Within 30 minutes following blood collection, each blood sample was centrifuged at 1500 g for 10 minutes at 4° C.
(§3) From the plasma concentration-time data, the following pharmacokinetic parameters were determined, as data permit using non-compartmental methods: maximum observed plasma concentration (Cmax), time at which maximum observed plasma concentration (tmax), area under the plasma concentration-time curve AUC(0-24 h) and AUC(0-∞), and apparent terminal phase half-life (t1/2).
FIG. 1 summarises certain plasma pharmacokinetic parameters of urolithin A following single dose oral administration at 250 mg, 500 mg, and 2000 mg urolithin A dosages.

[2] = clinical; settings: human, in vivo, po
Experimental: Part B: The study was a double-blinded, randomized, multiple ascending dose study in 36 healthy elderly male and female volunteers. Each subject was randomised to receive study product or placebo for 28 days.
Part B: Repeated oral dose administration from day 1 to day 28 according to the randomization. The administration took place around 8:00 am with around 200 mL tap water, in a sitting position, and under fasting conditions.
After multiple dosing: Cmax, tmax, AUC0-24 h, t1/2 From the plasma concentration-time data, the following pharmacokinetic parameters will be determined, as data permit using non-compartmental methods: maximum observed plasma concentration (Cmax(ng/mL), time at which maximum observed plasma concentration (tmax) (h), area under the plasma concentration-time curve AUC(0-24 h) (ng/mL*h) and AUC0-∞) (ng/mL*h), and apparent terminal phase half-life (t1/2) (h).
as §1, §2, §3

[3] = tested on: mitochondrial gene sets in vastus lateralis muscle; test: Microarray / Gene Set Enrichment Analysis of gene expression in skeletal muscle biopsies after 28 days dosing; format: in vivo, human; settings: 500 mg/day for 28 days vs placebo group
Experimental: Muscle biopsies were collected before the meal from the vastus lateralis muscle of the right leg in order to perform ex vivo measurements.
Muscle biopsies were collected on Day −1 and Day 28 at pre-dose under fasted state using the Bergstrom biopsy needle technique. The minimal amount of each muscle tissue sample was approximately […]. One third of the tissue was used for gene expression (≈50 mg), and was further divided into two equal portions: one portion for RNA analysis (≈25 mg) and one portion for DNA analysis (≈25 mg), both in a Safe-lock Tubes 2.0 ml, Eppendorf (part no. 0030.120.094). Muscle tissue was snap frozen using liquid nitrogen immediately after collection and further, long term storage will be in a −80° C. freezer. The mRNA was analysed by qPCR. Quantification of mtDNA over nuclear DNA provided another measure of mitochondrial abundance. The shipment was done in dry ice by specialized carrier. Temperatures were monitored using data logger during all transport.
Gene expression on available remaining muscle tissues samples was performed by microarrays.
Microarray analysis was carried out on skeletal muscle biopsies of human subjects administered urolithin A or placebo daily for 28 days. Approximately 30,000 gene transcripts were quantified by microarray in muscle biopsies and compared (day 28 vs. day −1). Gene Set Enrichment Analysis was conducted on 6166 gene sets. […]

[4] = tested on: plasma acylcarnitines and other metabolites; test: Plasma metabolomics (LC/MS/MS), day 28 vs day -1; format: in vivo, human; settings: 500 mg/day for 28 days
Experimental: Blood handling procedures: at each time point indicated in the table, a 6 mL blood sample was drawn into K2-EDTA coated tube. The blood samples were gently inverted a few times for complete mixing with the anticoagulant. The exact time of sample collection was recorded on the eCRF. Within 30 minutes following blood collection, each blood sample was centrifuged at 1500 g for 10 minutes at 4° C. 30 minutes after the centrifugation, the top layer of human plasma was transferred into 2 pre-labelled polypropylene tubes, containing approximately 1500 μL of plasma. Blood cells were not transferred. All sample tubes were clearly and appropriately labelled. Tubes were capped immediately from each time point and the plasma was be frozen in an upright position at approximately −80° C. for storage. Measurement of metabolites: Samples were extracted and split into equal parts for analysis on the LC/MS/MS and Polar LC platforms. Proprietary software was used to match ions to an in-house library of standards for metabolite identification and for metabolite quantitation by peak area integration. A total of 781 metabolites were quantified. Metabolomics is the study of known measurable metabolites in a sample. […] The technique made use of HPLC-MS-MS analysis of plasma samples of subjects administered either placebo or urolithin A to characterise metabolites. 781 plasma metabolites which cover all of the biochemical processes of the body were investigated. […] The grey line in FIG. 8 corresponds to a fold change of 1, i.e. absence of effect. *P<0.05 correspond to a significant effect from D-1 (pre-dose) to D28, calculated after a repeated measures ANOVA. N=9 per group. Values represent the arithmetic mean of the fold changes.

[5] = tested on: myostatin/follistatin ratio; test: ELISA of plasma muscle function markers, day 28 vs day -1; format: in vivo, human; settings: 500 mg/day for 28 days, day 28 vs day -1, compared with placebo
Experimental: Blood handling procedures: at each time point indicated in the table, a 6 mL blood sample was drawn into K2-EDTA coated tube. The blood samples were gently inverted a few times for complete mixing with the anticoagulant. The exact time of sample collection was recorded on the eCRF. Within 30 minutes following blood collection, each blood sample was centrifuged at 1500 g for 10 minutes at 4° C. 30 minutes after the centrifugation, the top layer of human plasma was transferred into 2 pre-labelled polypropylene tubes, containing approximately 1500 μL of plasma. Blood cells were not transferred. All sample tubes were clearly and appropriately labelled. Tubes were capped immediately from each time point and the plasma was be frozen in an upright position at approximately −80° C. for storage. Measurement of markers of muscle function: Markers of muscle function, including myostatin and follistatin, were measured using an ELISA based method. Every sample was analysed in technical duplicates together with a standard curve made with each isolated analyte. The amount of each marker was expressed as an absolute concentration in plasma (pg to μg/ml of plasma, depending on the analyte). Analysis of the levels of muscle biomarkers myostatin and follistatin, which are found in plasma of human subjects, was carried out using ELISA.

[6] = Steady state plasma levels of total Urolithin A (parent + glucuronide and sulfate) over 28 days of dosing; format: in vivo, human; settings: 500 mg/day oral for 28 days, total Urolithin A in plasma
Experimental: A double-blind, randomized, placebo controlled clinical trial was conducted in healthy elderly to establish the steady state levels of Urolithin A in plasma. Elderly subjects (61-82 years) (n=9), participated in each group of dosing. The subjects met all the inclusion and exclusion criteria of the study and signed informed consent. The subjects were overnight fasted and the plasma was collected in the morning before breakfast to assess steady state levels. Subjects were given a dose of Urolithin or placebo each morning for the 28 day trial, The urolithin A was given as softgel capsules containing 250 mg of Urolithin A in each capsule. Plasma samples were collected for assessment of Urolithin A steady state concentrations in the 4-week Urolithin A study at the following time points (Day 0, Day 7, Day 14, Day 28, Day 29, Day 31, and Day 32) were measured On day 28 the subjects were admitted to a Phase I clinical trial unit and the kinetics of Urolithin A absorption, and elimination following multiple 4-week dosing were followed until 96 hours following the last dosing on Day 28. Plasma was collected at the following time-points post last dosing with Urolithin A on Day 28: pre-dose, 1 hr, 2 hr, 4 hr, 6 hr, 8 hr, 12 hr, 24 hr, 72 hr and 96 hr. […] The exact time of sample collection was recorded on the eCRF (electronic case report from). […]

AUC(0-t) ([1]; 500 mg): 13.3 ng·h/mL | Cmax ([1]; 500 mg): 1.24 ng/mL | AUC(0-t) ([1]; 2000 mg): 12.4 ng·h/mL | Cmax ([1]; 2000 mg): 1.04 ng/mL | AUC ([2]; both sexes, 500 mg): 10.7 ng·h/mL | Cmax ([2]; both sexes, 500 mg): 1.25 ng/mL | pharmacokinetic profile over the 28 day period (plasma concentrations 24 h after previous dose, days 7, 14, 28, 29) [2]: stable | steady state levels after end of the 4-week administration (Day 31 and Day 32) [6]: gradually declined
SMILES: O=c1oc2cc(O)ccc2c2ccc(O)cc12 [Urolithin A]
dose-normalised plasma Cmax and AUC0-36 h (plasma levels per mg dosed) [1]: higher plasma levels of urolithin A were observed per mg dosed | enrichment in GO_MITOCHONDRION genes expression [3]: significant | plasma carnitine levels [4]: did not change | change in plasma acylcarnitines, short chain up to long chain (fold change) ([4]; day -1 to day 28, N=9): overall decrease; also recorded: significant impact | change in plasma pyruvate, lactate, acetoacetate, 3-hydroxyoctanoate and glucose (fold change) ([4]; day -1 to day 28, N=9): no significant change | change in plasma myostatin/follistatin ratio [5]: significantly lower; also recorded: significant decrease
